Data as given in ChEMBL document CHEMBL1201862, “PubChem BioAssay data set” (2004).
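Values below derive from 48-hour exposures of cells grown in 96-well plates, with endpoints linearly interpolated between the two concentrations bracketing the appropriate inhibition level. The concentration for 50% growth inhibition is given as GI50.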 The source made the active and inactive calls. Cut-off read from the data, not from the text of the source: active = GI50 up to about 1.1 µM and inactive = higher.

Tests used:
Experiment in all cases: NCI-60 cell line screen, 48 h
[1] = tested on: SNB-19
[2] = tested on: HOP-62
[3] = tested on: UACC-257
[4] = tested on: NCI-H522
[5] = tested on: KM12
[6] = tested on: A549
[7] = tested on: EKVX
[8] = tested on: K562
[9] = tested on: 786-0
[10] = tested on: RPMI-8226
[11] = tested on: MOLT-4
[12] = tested on: SF-539
[13] = tested on: DU-145
[14] = tested on: PC-3
[15] = tested on: UACC-62
[16] = tested on: M14
[17] = tested on: MDA-N
[18] = tested on: Hs-578T
[19] = tested on: SF-295
[20] = tested on: MDA-MB-231

Measured: GI50

CC(=O)OC[C@@]12CC[C@H]3C(C)(C)CCC[C@]3(C)[C@H]1C[C@@H](C1=CC(=O)O[C@H]1O)O2
inactive: [1] 16.7 µM | [2] 10.4 µM | [3] 2.12 µM | [4] 1.62 µM | [5] 6.75 µM | [6] 6.97 µM | [7] 11.7 µM | [8] 1.48 µM | [9] 1.8 µM | [10] 2.15 µM | [11] 1.36 µM | [12] 2.39 µM | [13] 7.29 µM | [14] 5.43 µM | [15] 1.94 µM | [16] 2.45 µM | [17] 2.24 µM | [18] 4.9 µM | [19] 8.67 µM

N#Cc1cc(C#N)c(Cl)nc1N
inactive: [1] > 10 µM | [2] > 10 µM | [5] > 10 µM | [6] > 10 µM | [7] > 10 µM | [8] 7.53 µM | [9] > 10 µM | [10] > 10 µM | [11] > 10 µM | [12] > 10 µM | [14] > 10 µM | [15] > 10 µM | [17] > 10 µM | [18] > 10 µM | [19] > 10 µM

CSc1nc(NC2OCC(OC(C)=O)C(OC(C)=O)C2OC(C)=O)c(/N=C\C=N\c2c(NC3OCC(OC(C)=O)C(OC(C)=O)C3OC(C)=O)nc(SC)[nH]c2=O)c(=O)[nH]1 (stereo not given)
inactive: [1] 46.3 µM | [2] 30.5 µM | [20] > 100 µM | [3] > 100 µM | [4] > 61.2 µM | [5] > 100 µM | [6] > 100 µM | [7] > 86.9 µM | [8] > 100 µM | [9] 30.1 µM | [10] > 100 µM | [11] > 100 µM | [12] 43.7 µM | [13] > 100 µM | [15] > 100 µM | [16] > 100 µM | [17] > 100 µM | [18] 42 µM | [19] > 66.8 µM

COc1cc(S(=O)(=O)Nc2ccc(-c3csc(N4C(=O)CSC4c4ccccc4O)n3)cc2)ccc1Cl (stereo not given)
inactive: [1] 57.9 µM | [2] 85.7 µM | [3] 27.7 µM | [4] 24.3 µM | [5] 38.4 µM | [6] 61.8 µM | [7] 25.4 µM | [8] 34.8 µM | [9] 69.2 µM | [10] 60.5 µM | [11] 88.3 µM | [12] 34.8 µM | [13] 35.4 µM | [14] 38.1 µM | [15] 29.4 µM | [16] 64.3 µM | [17] 32.9 µM | [19] 72.6 µM

Cc1ccc(S(=O)(=O)OC2CN3CCC2CC3)cc1 (stereo not given)
inactive: [1] > 100 µM | [2] > 100 µM | [20] > 100 µM | [3] > 100 µM | [4] > 100 µM | [5] > 100 µM | [6] > 100 µM | [7] > 100 µM | [8] > 100 µM | [9] > 100 µM | [10] > 100 µM | [11] > 100 µM | [12] > 100 µM | [13] > 100 µM | [14] > 100 µM | [15] > 100 µM | [16] > 100 µM | [18] > 100 µM | [19] > 100 µM

Cn1c(=O)c2c(n(C)c1=O)n1c(=O)c3ccccc3nc1n2C
inactive: [1] > 100 µM | [2] 39.9 µM | [20] > 100 µM | [3] > 100 µM | [4] 90.4 µM | [5] > 100 µM | [6] > 100 µM | [7] > 100 µM | [8] > 100 µM | [9] 82.2 µM | [10] > 100 µM | [11] > 100 µM | [12] > 100 µM | [13] > 100 µM | [14] > 100 µM | [15] 46.9 µM | [16] > 100 µM | [18] 59.4 µM | [19] 38 µM

Cc1ccc2nc(NC(=O)C(=O)C3C(=O)NC(=S)NC3=O)sc2c1
inactive: [1] > 100 µM | [2] > 100 µM | [20] > 100 µM | [3] > 100 µM | [4] 78 µM | [5] > 100 µM | [6] > 100 µM | [7] > 100 µM | [9] > 100 µM | [10] > 100 µM | [11] > 100 µM | [12] > 100 µM | [14] > 100 µM | [15] > 100 µM | [16] > 100 µM | [17] > 100 µM | [18] > 100 µM | [19] > 100 µM

Cc1cc2nc(N3C(=O)/C(=C/c4cccc([N+](=O)[O-])c4)N=C3c3ccccc3)sc2cc1C
inactive: [1] 34.1 µM | [2] 35.7 µM | [20] 62.4 µM | [3] 42.6 µM | [5] 27.2 µM | [6] 36.1 µM | [7] 18.8 µM | [8] 30.1 µM | [9] 40.3 µM | [10] 21.1 µM | [11] 12.9 µM | [12] 39.4 µM | [13] 42.8 µM | [14] 17.4 µM | [15] 33.5 µM | [16] 37.2 µM | [17] 12.5 µM | [18] 24.5 µM | [19] 32.4 µM

CC(C)c1ccc(NC(=S)NC(=O)c2ccccc2)cc1
inactive: [1] 48.4 µM | [2] 33.8 µM | [20] 26.6 µM | [3] 14.8 µM | [4] 17.4 µM | [5] 18.2 µM | [6] 30.8 µM | [7] 30.8 µM | [8] 12.1 µM | [9] 18.4 µM | [10] 23.7 µM | [11] 13.1 µM | [12] 36.2 µM | [13] 23.2 µM | [14] 36.5 µM | [15] 13.6 µM | [16] 17.3 µM | [18] 31.8 µM | [19] 14.1 µM

N#C/C(C(=O)Nc1ccc(Cl)cc1)=C(/N)N1CCCCC1
inactive: [1] 36.8 µM | [2] 41.3 µM | [3] > 100 µM | [5] > 100 µM | [6] > 100 µM | [7] 45.1 µM | [8] > 100 µM | [9] > 100 µM | [10] > 100 µM | [11] > 100 µM | [12] 75.7 µM | [13] > 100 µM | [14] > 100 µM | [15] 42.5 µM | [16] 85.1 µM | [17] > 100 µM | [19] 54 µM

COc1ccc(/N=N/c2c(C)c(C#N)c(=S)n(C3OC(CO)C(O)C(O)C3O)c2-c2ccccc2)cc1 (stereo not given)
inactive: [1] 41.3 µM | [2] 37.9 µM | [20] 51.1 µM | [3] 48.8 µM | [5] 43.5 µM | [6] 36.7 µM | [8] 19.3 µM | [9] 32 µM | [10] 36.1 µM | [11] 9.04 µM | [12] 42.7 µM | [13] 32.1 µM | [14] 17.1 µM | [15] 18.8 µM | [16] 24.9 µM | [17] 37.4 µM | [18] 21.5 µM | [19] 30.8 µM
